Measured values published in ChEMBL document CHEMBL4354834 (J Med Chem, 2020).
Each block holds one compound with its values, some of them ahead of it.

Key:
[1] = Clearance in rat at 1.13 mg/kg, iv or 2.27 mg/kg, po; format: ADME, organism-based; settings: in vivo
[2] = Volume of distribution at steady state in rat at 1.13 mg/kg, iv or 2.27 mg/kg, po; format: ADME, organism-based; settings: in vivo, read-out: Vdss
[3] = Oral bioavailability in rat at 2.27 mg/kg; format: ADME, organism-based; settings: in vivo
[4] = Half life in rat at 1.13 mg/kg, iv or 2.27 mg/kg, po; format: ADME, organism-based; settings: in vivo
[5] = AUC in rat at 2.27 mg/kg, po; format: ADME, organism-based; settings: in vivo
[6] = Protein binding in rat; format: ADME; settings: plasma, read-out: PB (converted)
Coagulation factor X = Coagulation factor X (Homo sapiens, UniProt P00742); test: Inhibition of activated human coagulation factor X using N-benzoyl-Ile-Glu-OH-OMe-Gly-Arg-pNA as substrate by spectrophotometry
Plasma kallikrein = Plasma kallikrein (Homo sapiens, UniProt P03952); test: Inhibition of human kallikrein using H-(D)-Pro-Phe-Arg-pNA as substrate by spectrophotometry
[7] = Permeability of the compound across basolateral side to apical side in human Caco2 cells; format: ADME, cell-based; settings: Caco-2, read-out: permeability
Coagulation factor VII = molecular target: T1, Coagulation factor VII (Homo sapiens, UniProt P08709); test: Inhibition of activated human coagulation factor VII using H-(D)-Ile-Pro-Arg-pNA as substrate by spectrophotometry
T1 sequence (P08709 whole entry): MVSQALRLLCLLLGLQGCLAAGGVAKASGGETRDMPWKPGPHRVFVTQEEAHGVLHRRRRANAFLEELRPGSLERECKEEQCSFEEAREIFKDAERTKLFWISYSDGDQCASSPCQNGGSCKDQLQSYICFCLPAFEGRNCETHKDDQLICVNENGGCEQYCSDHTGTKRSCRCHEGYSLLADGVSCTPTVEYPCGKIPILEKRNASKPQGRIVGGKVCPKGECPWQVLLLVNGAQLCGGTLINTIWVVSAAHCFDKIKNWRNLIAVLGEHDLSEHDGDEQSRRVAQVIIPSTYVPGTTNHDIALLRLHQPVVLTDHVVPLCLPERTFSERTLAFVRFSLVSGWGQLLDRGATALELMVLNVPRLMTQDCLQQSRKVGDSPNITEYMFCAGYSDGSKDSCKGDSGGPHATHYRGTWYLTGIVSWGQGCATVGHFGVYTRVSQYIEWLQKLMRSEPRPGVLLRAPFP

[8] = Metabolic stability in human liver microsomes assessed as half life; format: ADME, Microsome
Plasminogen = Plasminogen (Homo sapiens, UniProt P00747); test: Inhibition of human plasmin using H-(D)-Val-Leu-Lys-pNA as substrate by spectrophotometry
[9] = Metabolic stability in dog liver microsomes assessed as half life; format: ADME, Canis lupus familiaris, Microsome
Coagulation factor IX = Coagulation factor IX (Homo sapiens, UniProt P00740); test: Inhibition of activated human coagulation factor IX using 7-amino-4-methylcoumarin as substrate by spectrofluorimetry
[10] = Metabolic stability in cynomolgus monkey liver microsomes assessed as half life; format: ADME, Macaca fascicularis, Microsome
Trypsin = Trypsin (Homo sapiens, UniProt P07477+P07478+P35030); test: Inhibition of human trypsin using N-benzoyl-Ile-Glu-OH-OMe-Gly-Arg-pNA as substrate by spectrophotometry; format: protein assay
[11] = molecular target: Vitamin K-dependent protein C (Homo sapiens, UniProt P04070); test: Inhibition of activated human protein C using pyro-Glu-Pro-Arg-pNA as substrate by spectrophotometry
Prothrombin = Prothrombin (Homo sapiens, UniProt P00734); test: Inhibition of human alpha-thrombin using pyro-Glu-Pro-Arg-pNA as substrate by spectrophotometry
[12] = Metabolic stability in rat liver microsomes assessed as half life; format: ADME, Microsome
Coagulation factor XII = molecular target: T2, Coagulation factor XII (Homo sapiens, UniProt P00748); test: Inhibition of activated human coagulation factor XII using H-(D)-CHT-Gly-Arg-pNA as substrate by spectrophotometry
T2 sequence (P00748 whole entry): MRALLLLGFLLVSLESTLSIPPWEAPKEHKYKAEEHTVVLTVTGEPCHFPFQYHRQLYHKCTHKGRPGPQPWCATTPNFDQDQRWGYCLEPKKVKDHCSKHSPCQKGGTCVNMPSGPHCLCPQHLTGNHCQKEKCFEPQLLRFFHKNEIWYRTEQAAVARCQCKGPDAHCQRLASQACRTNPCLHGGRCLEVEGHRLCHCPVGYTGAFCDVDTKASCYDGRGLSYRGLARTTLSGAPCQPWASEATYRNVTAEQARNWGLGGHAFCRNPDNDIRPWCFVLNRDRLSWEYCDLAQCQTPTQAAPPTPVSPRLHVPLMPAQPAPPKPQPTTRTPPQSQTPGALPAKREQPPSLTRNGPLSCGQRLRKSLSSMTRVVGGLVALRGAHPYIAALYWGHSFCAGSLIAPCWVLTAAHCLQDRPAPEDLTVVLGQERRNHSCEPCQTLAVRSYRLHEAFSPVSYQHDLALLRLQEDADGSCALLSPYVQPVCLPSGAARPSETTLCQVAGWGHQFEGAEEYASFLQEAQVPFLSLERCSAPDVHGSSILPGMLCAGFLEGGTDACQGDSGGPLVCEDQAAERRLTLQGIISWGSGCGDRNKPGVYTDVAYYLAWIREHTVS

[13] = Permeability of the compound across apical side to basolateral side in human Caco2 cells; format: ADME, cell-based; settings: Caco-2, read-out: permeability
[14] = molecular target: Urokinase-type plasminogen activator (Homo sapiens, UniProt P00749); test: Inhibition of activated human urokinase using pyro-Glu-Gly-Arg-pNA as substrate by spectrophotometry
[15] = Volume of distribution at steady state in rat at 0.50 mg/kg, iv or 1.0 mg/kg, po; format: ADME, organism-based; settings: in vivo, 0.5 mg/kg, read-out: Vdss
[16] = Half life in rat at 0.50 mg/kg, iv or 1.0 mg/kg, po; format: ADME, organism-based; settings: in vivo
[17] = Clearance in rat at 0.50 mg/kg, iv or 1.0 mg/kg, po; format: ADME, organism-based; settings: in vivo, 0.5 mg/kg
[18] = Oral bioavailability in rat at 1.0 mg/kg; format: ADME, organism-based; settings: in vivo

Plasma kallikrein, sequence (P03952 20-390 limits assumed): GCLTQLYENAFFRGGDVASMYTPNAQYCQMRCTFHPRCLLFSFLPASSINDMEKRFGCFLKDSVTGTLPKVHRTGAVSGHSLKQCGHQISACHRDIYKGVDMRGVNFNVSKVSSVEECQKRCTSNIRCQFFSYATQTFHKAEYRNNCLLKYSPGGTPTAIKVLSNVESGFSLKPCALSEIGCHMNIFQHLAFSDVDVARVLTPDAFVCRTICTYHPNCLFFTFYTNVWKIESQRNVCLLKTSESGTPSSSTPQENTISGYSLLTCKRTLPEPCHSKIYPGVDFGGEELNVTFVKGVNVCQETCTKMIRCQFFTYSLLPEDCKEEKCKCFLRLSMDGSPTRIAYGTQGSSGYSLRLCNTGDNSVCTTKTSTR
Plasma kallikrein, sequence (P03952 391-638 limits assumed): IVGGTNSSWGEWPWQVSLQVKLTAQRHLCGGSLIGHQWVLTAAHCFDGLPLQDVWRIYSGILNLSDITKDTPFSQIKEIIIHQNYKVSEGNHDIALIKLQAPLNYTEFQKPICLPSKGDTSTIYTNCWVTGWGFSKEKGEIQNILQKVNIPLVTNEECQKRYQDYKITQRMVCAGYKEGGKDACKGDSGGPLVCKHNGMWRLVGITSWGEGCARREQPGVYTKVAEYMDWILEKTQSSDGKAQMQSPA
Coagulation factor IX, sequence (P00740 47-191 limits assumed): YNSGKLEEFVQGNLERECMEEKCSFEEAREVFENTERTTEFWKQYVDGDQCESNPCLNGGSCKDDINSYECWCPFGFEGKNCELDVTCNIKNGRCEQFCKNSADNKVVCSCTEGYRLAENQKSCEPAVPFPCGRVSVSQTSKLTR
Coagulation factor IX, sequence (P00740 227-461 limits assumed): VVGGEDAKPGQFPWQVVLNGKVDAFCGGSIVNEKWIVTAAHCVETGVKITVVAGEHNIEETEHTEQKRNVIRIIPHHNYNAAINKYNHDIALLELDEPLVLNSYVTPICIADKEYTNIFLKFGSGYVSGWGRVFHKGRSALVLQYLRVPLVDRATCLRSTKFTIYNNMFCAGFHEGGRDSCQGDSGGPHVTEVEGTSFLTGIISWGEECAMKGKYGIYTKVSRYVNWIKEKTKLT
Coagulation factor X, sequence (P00742 41-179 limits assumed): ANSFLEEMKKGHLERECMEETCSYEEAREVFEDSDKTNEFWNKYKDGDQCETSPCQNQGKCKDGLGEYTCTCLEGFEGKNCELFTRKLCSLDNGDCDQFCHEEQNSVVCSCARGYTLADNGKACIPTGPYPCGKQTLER
Coagulation factor X, sequence (P00742 235-488 limits assumed): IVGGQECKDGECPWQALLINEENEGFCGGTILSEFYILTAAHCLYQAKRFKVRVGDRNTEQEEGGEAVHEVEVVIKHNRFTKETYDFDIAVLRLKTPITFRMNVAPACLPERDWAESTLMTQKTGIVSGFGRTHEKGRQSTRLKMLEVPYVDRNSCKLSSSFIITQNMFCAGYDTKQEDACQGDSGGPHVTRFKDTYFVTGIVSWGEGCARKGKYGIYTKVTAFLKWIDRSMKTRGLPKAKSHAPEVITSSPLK
Plasminogen, sequence (P00747 97-580 limits assumed): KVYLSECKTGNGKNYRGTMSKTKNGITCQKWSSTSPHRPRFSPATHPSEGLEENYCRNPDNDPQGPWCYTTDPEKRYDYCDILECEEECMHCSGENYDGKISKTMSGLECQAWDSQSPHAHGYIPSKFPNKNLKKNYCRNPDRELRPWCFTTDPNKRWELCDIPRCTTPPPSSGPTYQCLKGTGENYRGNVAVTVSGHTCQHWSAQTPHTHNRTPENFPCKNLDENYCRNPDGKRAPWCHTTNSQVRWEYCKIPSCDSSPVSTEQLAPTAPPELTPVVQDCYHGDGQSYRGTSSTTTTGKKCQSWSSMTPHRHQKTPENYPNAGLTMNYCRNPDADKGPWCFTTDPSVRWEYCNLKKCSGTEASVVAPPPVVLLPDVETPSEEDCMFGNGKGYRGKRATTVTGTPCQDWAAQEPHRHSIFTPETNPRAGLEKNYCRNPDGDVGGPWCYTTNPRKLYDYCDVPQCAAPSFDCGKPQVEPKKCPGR
Plasminogen, sequence (P00747 581-810 limits assumed): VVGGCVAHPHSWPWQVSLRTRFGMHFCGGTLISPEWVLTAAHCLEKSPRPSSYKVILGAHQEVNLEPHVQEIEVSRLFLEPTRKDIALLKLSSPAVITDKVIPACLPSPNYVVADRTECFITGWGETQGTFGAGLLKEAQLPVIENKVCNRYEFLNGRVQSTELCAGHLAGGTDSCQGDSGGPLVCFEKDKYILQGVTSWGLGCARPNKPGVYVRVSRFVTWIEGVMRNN
Vitamin K-dependent protein C, sequence (P04070 43-197 limits assumed): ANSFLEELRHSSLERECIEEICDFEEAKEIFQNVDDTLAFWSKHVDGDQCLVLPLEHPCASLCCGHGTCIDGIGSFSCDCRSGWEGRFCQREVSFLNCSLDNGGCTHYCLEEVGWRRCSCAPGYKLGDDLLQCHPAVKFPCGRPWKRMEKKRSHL
Vitamin K-dependent protein C, sequence (P04070 212-461 limits assumed): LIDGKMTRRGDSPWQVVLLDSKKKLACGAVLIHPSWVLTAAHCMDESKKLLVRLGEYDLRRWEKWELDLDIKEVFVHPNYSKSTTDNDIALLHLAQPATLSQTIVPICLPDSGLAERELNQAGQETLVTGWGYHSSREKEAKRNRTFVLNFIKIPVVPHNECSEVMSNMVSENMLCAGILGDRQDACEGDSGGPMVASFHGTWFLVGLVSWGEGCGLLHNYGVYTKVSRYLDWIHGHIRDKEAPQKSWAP

- clearance [1]: 10 mL/min/kg
- Vd [2]: 0.3 L/kg
- bioavailability [3]: 0%
- half-life [4]: 60 min
- AUC [5]: 0.024 µM·h
- fraction unbound [6]: 0.016
Structure (SMILES): COC(=O)Nc1ccc2c(c1)NC(=O)CCCC[C@H](NC(=O)/C=C/c1cc(Cl)ccc1-n1cnnn1)c1nc-2c[nH]1

- Ki (Coagulation factor X): > 13.3 µM
- Ki (Plasma kallikrein): 0.0063 µM
- Papp B→A [7]: 36.7 ×10⁻⁶ cm/s
- Ki (Coagulation factor VII): > 13.3 µM
- half-life [8]: 55 min
- Ki (Plasminogen): > 15 µM
- half-life [9]: 73 min
- Ki (Coagulation factor IX): > 27.1 µM
- half-life [10]: 48 min
- Ki (Trypsin): > 10 µM
- Ki [11]: > 21.5 µM
- Ki (Prothrombin): > 11.5 µM
- half-life [12]: 68 min
- Ki (Coagulation factor XII): 2.53 µM
- Papp A→B [13]: < 1.5 ×10⁻⁶ cm/s
- Ki [14]: > 15.1 µM
Structure (SMILES): COC(=O)Nc1ccc2c(c1)NC(=O)[C@H](C)CCC[C@H](NC(=O)c1ncn(-c3cccc(Cl)c3F)c1C)c1cc-2ccn1.Cl.Cl

- Papp B→A [7]: 6.6 ×10⁻⁶ cm/s
- half-life [8]: 39 min
- Vd [15]: 3.4 L/kg
- half-life [16]: 690 min
- half-life [12]: 54 min
- Papp A→B [13]: 3.8 ×10⁻⁶ cm/s
- clearance [17]: 4.6 mL/min/kg
- bioavailability [18]: 0%
Structure (SMILES): COC(=O)Nc1ccc2c(c1)NC(=O)[C@H](C)CCC[C@H](NC(=O)/C=C/c1cc(Cl)ccc1-n1cnnn1)c1cc-2ccn1.O=C(O)C(F)(F)F
- EC1.5 (Plasma): 0.62 µM
